In PubChem BioAssay (NCI):
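A five-concentration, 48-hour dose response in 96-well plates underlies each endpoint, interpolated linearly between surrounding concentrations. At the GI50, growth is halved. TGI: concentration producing complete growth inhibition.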

How the values were obtained:
Assay in all cases: NCI tumour cell line growth inhibition, 48 h
HL-60(TB) leukemia = test system: HL-60(TB) leukemia
SK-MEL-28 melanoma = test system: SK-MEL-28 melanoma
SK-MEL-5 melanoma = test system: SK-MEL-5 melanoma
SF-268 CNS = test system: SF-268 CNS
HOP-92 NSCLC = test system: HOP-92 NSCLC
SN12C renal = test system: SN12C renal
OVCAR-4 ovarian = test system: OVCAR-4 ovarian
LOX IMVI melanoma = test system: LOX IMVI melanoma
K-562 leukemia = test system: K-562 leukemia
T-47D breast = test system: T-47D breast

| SMILES | TGI (HL-60(TB) leukemia) | TGI (SK-MEL-28 melanoma) | TGI (SK-MEL-5 melanoma) | TGI (SF-268 CNS) | TGI (HOP-92 NSCLC) | TGI (SN12C renal) | TGI (OVCAR-4 ovarian) | TGI (LOX IMVI melanoma) | TGI (K-562 leukemia) | GI50 (HL-60(TB) leukemia) | GI50 (SK-MEL-5 melanoma) | GI50 (SF-268 CNS) | GI50 (K-562 leukemia) | GI50 (HOP-92 NSCLC) | GI50 (SN12C renal) | GI50 (OVCAR-4 ovarian) | GI50 (LOX IMVI melanoma) | TGI (T-47D breast) | GI50 (T-47D breast) | GI50 (SK-MEL-28 melanoma) |
| --- | --- | --- | --- | --- | --- | --- | --- | --- | --- | --- | --- | --- | --- | --- | --- | --- | --- | --- | --- | --- |
| O=C(CC1SC(=Nc2ccccc2Cl)NC1=O)Nc1ccc(Cl)cc1Cl (stereo not drawn) | > 100 µM | > 100 µM | > 100 µM | > 100 µM | > 100 µM | > 100 µM | > 100 µM | > 100 µM |  |  |  |  |  |  |  |  |  |  |  |  |
| CC1(c2ccccc2Cl)C(C#N)C(=O)NC(=O)C1C#N (stereo not drawn) | 48.5 µM | > 100 µM | 74.2 µM | > 100 µM | 59.8 µM | > 100 µM | > 100 µM | > 100 µM | > 100 µM |  |  |  |  |  |  |  |  |  |  |  |
| O=S(=O)(/C=C/C(=C/c1ccccc1)S(=O)(=O)c1ccccc1)c1ccccc1 |  | 2.8 µM |  | 4.1 µM |  | 3.43 µM | 3.07 µM | 2.08 µM | 9.19 µM |  |  |  |  |  |  |  |  |  |  |  |
| O=c1[nH]cc(F)c(=O)n1C1OC(CO)C(O)C1O (stereo not drawn) | > 100 µM | > 100 µM | > 100 µM | > 100 µM | > 100 µM | > 100 µM | > 100 µM | > 100 µM | > 100 µM |  |  |  |  |  |  |  |  |  |  |  |
| Cc1ccccc1NC(=O)C(=O)C(C#N)c1ccccc1C (stereo not drawn) | > 100 µM | > 100 µM | > 100 µM | > 100 µM | > 100 µM | > 100 µM |  | 39.4 µM | 61.5 µM |  |  |  |  |  |  |  |  |  |  |  |
| N#Cc1ccc(C=NC23CC4CC(CC(C4)C2)C3)cc1 | 53 µM | > 100 µM |  | > 100 µM | > 100 µM | > 100 µM | > 100 µM | > 100 µM | > 100 µM |  |  |  |  |  |  |  |  |  |  |  |
| CCOC(=O)/C(C#N)=C(O)/C(=C\c1ccc(Br)cc1)NC(=O)c1ccccc1 | > 100 µM | > 100 µM | > 100 µM | > 100 µM | > 100 µM | > 100 µM | > 100 µM |  | > 100 µM |  |  |  |  |  |  |  |  |  |  |  |
| CC(C)=CC(=O)N(C)C1C2CN3CCC(O2)C13 (stereo not drawn) | > 100 µM | > 100 µM | > 100 µM | > 100 µM |  | > 100 µM | > 100 µM | > 100 µM | > 100 µM |  |  |  |  |  |  |  |  |  |  |  |
| Cc1ccc(S(=O)(=O)N/N=C(/CC(=O)c2c(C)n([O-])c3ccccc3[n+]2=O)C(=O)Nc2ccccc2C)cc1 |  | > 100 µM |  | > 100 µM | > 100 µM | > 100 µM | > 100 µM |  |  |  |  |  |  |  |  |  |  |  |  |  |
| CCCCCCCCCCCCC(Br)C(=O)NCC(N)=O (stereo not drawn) | 31 µM | 29.2 µM | 18.4 µM | 17.8 µM | 18.9 µM |  | 12.6 µM | 42.1 µM |  |  |  |  |  |  |  |  |  |  |  |  |
| N#CC1=C(/N=C/c2ccccc2)Oc2c(ccc3ccccc23)C1c1ccccc1 (stereo not drawn) | 0.991 µM | > 100 µM | 2.5 µM | > 100 µM | > 23.6 µM | > 100 µM | > 100 µM | > 100 µM | > 100 µM | 295 nM | 378 nM | 1.02 µM | 0.358 µM | 299 nM | 822 nM | 698 nM | 559 nM |  |  |  |
| O=C(O)CCC(=O)c1ccc2sc3ccccc3c2c1 | > 100 µM | > 100 µM | > 100 µM | > 100 µM |  | > 100 µM | > 100 µM | > 100 µM | > 100 µM |  |  |  |  |  |  |  |  | > 100 µM |  |  |
| C=C1CCC2[C@@H](CCC3[C@]2(C)CCC[C@]3(C)C(=O)OC)C1CC=O (stereo partly drawn) | 40.1 µM | 30.7 µM | 33.9 µM | 35.1 µM | 27.8 µM | 36.7 µM | 32 µM |  | 26.6 µM |  |  |  | 8.65 µM |  |  |  |  |  |  |  |
| Cc1cc(C#Cc2ccc(C(C)(C)C)cc2)ccc1-n1c(/C=C/c2ccc(O)cc2O)nc2ccccc2c1=O |  | 7.27 µM | 3.98 µM | 18 µM | 8.31 µM | 4.13 µM | 14.7 µM | 2.87 µM | 14.1 µM |  | 1770 nM | 4.82 µM | 3.28 µM | 2820 nM | 1880 nM | 3150 nM | 1490 nM | 24.4 µM | 3850 nM | 2420 nM |
| O=C(O)/C=C/c1nc2ccccc2c(=O)o1 | > 100 µM | > 100 µM | > 100 µM |  | > 100 µM | > 100 µM | > 100 µM | > 100 µM | > 100 µM |  |  |  |  |  |  |  |  |  |  |  |
| C=CNC(=O)NC(=O)CSc1nnc(-c2ccccc2NC(=O)C(F)(F)F)c(=O)[nH]1 |  | > 100 µM | 2.06 µM | > 100 µM | 86.6 µM | > 100 µM |  | > 100 µM | > 100 µM |  |  |  |  |  |  |  |  |  |  |  |
| C[CH2][Sn]([CH2]C)([O]C(=O)c1ccccc1OC)[O][Sn]([CH2]C)([CH2]C)[O]C(=O)c1ccccc1OC | > 100 µM | > 100 µM | > 100 µM | > 100 µM | > 100 µM | > 100 µM | > 100 µM | > 100 µM | > 100 µM | > 100000 nM | > 100000 nM | > 100 µM | 47 µM | 89400 nM | > 100000 nM | > 100000 nM | 73000 nM |  |  | > 100000 nM |
| COc1cc2c(cc1OCCCCN1CCN(C(=S)SCCC(C#N)(c3ccccc3)c3ccccc3)CC1)N=C[C@@H]1CCCN1C2=O | 1.57 µM |  | 2.82 µM |  | 14.3 µM | 4.54 µM | 17.7 µM |  | > 100 µM | 324 nM | 1110 nM |  | 3.29 µM | 1070 nM | 1160 nM | 1820 nM |  | > 100 µM | 578 nM |  |
| O=C1Nc2ccccc2N=CC1NC(=O)C(c1ccccc1)c1ccccc1 (stereo not drawn) | > 100 µM | > 100 µM | > 100 µM | > 100 µM | > 100 µM | > 100 µM | > 100 µM | > 100 µM | > 100 µM |  |  |  |  |  |  |  |  |  |  |  |
| Cc1cc(C)nc(NS(=O)(=O)c2ccc(Nc3c4ccccc4nc4c(C(=O)Nc5ccc(S(=O)(=O)N=C(N)N)cc5)cccc34)cc2)n1 |  | > 100 µM | > 100 µM | > 100 µM | > 100 µM | > 100 µM | > 100 µM | > 100 µM | > 100 µM |  |  |  |  |  |  |  |  |  |  |  |
| COc1ccc(-c2cc(C(=O)Nc3ccc(C)c(C)c3)nc(NC#N)n2)cc1 |  | > 100 µM | > 100 µM | > 100 µM |  | > 100 µM | > 100 µM | > 100 µM | > 100 µM |  |  |  |  |  |  |  |  |  |  |  |
| COCOCC/C=C/C=O | > 100 µM | > 100 µM | > 100 µM | > 100 µM | > 100 µM | > 100 µM |  | > 100 µM | > 100 µM |  |  |  |  |  |  |  |  |  |  |  |
